Results on four compounds are retold here after patent US8951507B2, “Formulation with irritation reducing action comprising bisabolol and [6]-paradol” (Symrise AG, priority 2009, dated 2015).

Entries after “also recorded” stand apart in the source; their conditions may differ. Read-outs that look alike come from different tables or passages of the source.

The subject of series [1] is PGE2 release of human skin cells (keratinocytes). Nature of the series: Anti-Prostaglandin E2 (PGE2) assay, A23187-induced PGE2 release, ELISA. Particulars: for Maximum PGE2 inhibition: at optimum concentration, versus A23187-stimulated control; for Optimum: concentration giving maximum PGE2 inhibition; for IC50: primary human epidermal keratinocytes, 2 μM A23187 calcium ionophore, at least two independent experiments, read-out: IC50 (50% of PGE2 release is inhibited). Type of series: cell-based. On the procedure: PGE2 is an important inflammatory mediator in the skin. Thus, the inhibiting effect of [6]-paradol and related compounds on (A23187-induced) PGE2 release of human skin cells (keratinocytes) is investigated.
Primary human epidermal keratinocytes are seeded into a 96 well microplate and are cultured in KGM medium to 60-80% confluency. Afterwards, the KGM medium is substituted by KGM medium depleted of hydrocortisone but containing the test compounds (test compound solutions are applied in medium in three different concentrations, each as a triple determination in three different wells, e.g. for [6]-paradol: in experiment 1 the following concentrations were used: 20 μM, 2 μM and 0.2 μM, in experiment 2 the following concentrations were used: 10 μM, 1 μM and 0.1 μM and in experiment 3 the following concentrations were used: 2.5 μM, 0.25 μM and 0.025 μM.
The cells are incubated for 30 minutes. Then, PGE2 release is stimulated by addition of 2 μM A23187 calcium ionophore. After further 30 min incubation, the PGE2 content of the supernatant is quantified in an ELISA (PGE2 Enzyme Immunoassay System from GE Healthcare).
The results set out above were obtained from at least two independent experiments. PGE2 inhibition was calculated in comparison to the calcium ionophore A23187-induced stimulated control (without addition of test compounds).

The conditions of series [2]: literature reports; cited from earlier work.
The nature of series [3]: Stability in cosmetic compositions or products at varying pH (own experiments). It is filed as physicochemical. Particulars: basic, neutral or acidic cosmetic compositions or products. The source says:
Furthermore, in contrast to gingerols and shogaols, in particular to gingerols, which are labile and prone to degradation (J. Pharm. Sci. 2001, 1658-1664), thus showing insufficient stability, according to own experiments [6]-paradol is very stable in cosmetic compositions or products, even at varying pH-values, i.e. in basic, neutral or acidic cosmetic compositions or products.
The synergistic combinations of bisabolol and [6]-paradol, i.e. the formulations according to the present invention, are preferably colourless, are advantageously of low odour and show good stability even at pH values […], which is of particular interest for several cosmetic products such as sunscreen formulations, soaps, deo sticks, alkaline hair colourations and oral care formulations like tooth pastes. The synergistic combinations of bisabolol and [6]-paradol are advantageously stable over a wide range of pH-values, generally in cosmetic compositions or products having a pH-value in the range of 4 to 10, in particular in cosmetic compositions or products having a pH-value in the range of 5 to 9.

Regarding `CCCCC[C@H](O)CC(=O)CCc1ccc(O)c(OC)c1` [[6]-Gingerol], in series [1], the “Maximum PGE2 inhibition” value was ~30%; the Optimum amounted to 5 µM; the IC50 – broadly, the concentration that gives 50% inhibition – was 3.47 ± 4.08 µM. The Mutagenicity entry in series [2] is on record as “potent mutagen”.

For the compound `CCCCCCCC(=O)CCc1ccc(O)c(OC)c1` [[6]-Paradol, 1-(4-hydroxy-3-methoxyphenyl)-decan-3-one], the IC50 in series [1] (Keratinocyte) was 0.13 µM. The “PGE2 inhibitory activity compared with the other tested compounds” value in series [1] (among [6]-paradol, [6]-gingerol, [8]-gingerol and [8]-paradol) is recorded as “most active; also recorded: highest activity”. For the same compound, in series [1], the “Maximum PGE2 inhibition” value is on record as 90-100% and the Optimum is 5 µM. Besides, the “Stability in cosmetic compositions or products” value in series [3] was “very stable”. The Mutagenicity result in series [2] is “not mutagenic”.

As to `CCCCCCC[C@H](O)CC(=O)CCc1ccc(O)c(OC)c1` [[8]-Gingerol], in series [1], the “Maximum PGE2 inhibition” value was ~70%, the Optimum came to 20 µM and the IC50 was determined as 1.42 ± 0.67 µM.

On to `CCCCCCCCCC(=O)CCc1ccc(O)c(OC)c1` [[8]-Paradol], for which, in series [1], the “Maximum PGE2 inhibition” value is 80-100%, the Optimum was found to be 10 µM and the IC50 is 1.48 ± 1.21 µM.
